Results as given in patent US20050192371A1, “Preparation and use of photopolymerized microparticles” (priority 1998, published 2005).

What was measured:
[1] = Drug release / degradation of PMSA microparticles in phosphate-buffered saline; format: physicochemical; settings: FIG. 13; tacrine absorbance at 322 nm, Rose Bengal at 550 nm
Procedure: The centrifuge tube was shaken to disperse the particles throughout the solution and placed in a 37° C. temperature bath for 3 minutes. The tube was then immediately centrifuged, and the buffer was drawn off and analyzed for drug concentration. The centrifuge tube was refilled with 37° C. PBS, and the cycle was repeated for about 3 hours. The tubes remained in the temperature bath for 3 minutes for the first hour, and 5-10 minutes for the remainder of the time data was collected. UV-Vis spectrophotrometry (Model 8452, Hewlett Packard) was used to determine the concentration of tacrine (absorbance was measured at 322 nm) in experiment samples.
Drug release experiments illustrate the release properties of the microparticles formed in the photopolymerization PCA process. […] The Rose Bengal release profile is also affected by photobleaching of particles in room light. This may explain the lag time at the beginning of the Rose Bengal release in FIG. 13.

[2] = Release of Rose Bengal from MSA disks versus mass fraction degraded; format: physicochemical; settings: FIG. 14; homogeneous and heterogeneous MSA disks, 10 ml PBS, 37° C., absorbance 550 nm
Text: Crosslinked particles containing Rose Bengal were incorporated in a MSA matrix and polymerized into disks. Rose Bengal was also homogeneously incorporated into another set of MSA disks and polymerized. Advantages of using a particle-polymer composite include multi-mode degradation and release possible through the use of different biocompatible polymers and drugs, ease of control of surface degradation, and in one particular application, bone growth is facilitated by the resulting porous structures.
Disk samples were 0.25 to 0.3 grams, 13 mm diameter and 1.5 mm thick. Disks were placed in 10 ml of PBS buffer at 37° C. to monitor the degradation.
The absorbance of Rose Bengal was measured at 550 nm, and the disks were weighed to monitor the degradation.

SMILES: Nc1c2c(nc3ccccc13)CCCC2 [tacrine, 9-amino-1,2,3,4-tetrahydroacridine]
- release profile from PMSA particles into PBS buffer [1]: follows the curve for surface erosion of a sphere

SMILES: O=C([O-])c1c(Cl)c(Cl)c(Cl)c(Cl)c1-c1c2cc(I)c(=O)c(I)c-2oc2c(I)c([O-])c(I)cc12.[Na+].[Na+] [Rose Bengal]
- release profile from PMSA particles into PBS buffer [1]: some influence of diffusion in the release
- release behavior as a function of the mass fraction of the disks degraded [2]: linear relationship between degradation and release
